Measured values reported in PubChem BioAssay AID252 (DTP/NCI, 2004).
“And” between values parts separate entries of the source, which are not always exact repeats. Identical values can stand only once. Inconclusive results and toxic doses are left out.

Test system: BDF1 mice, intracerebral L1210 leukemia, survival T/C
Experiment: NCI In Vivo Anticancer Drug Screen. Data for tumor model L1210 Leukemia (intracerebral) in B6D2F1 (BDF1) mice
Details: higher = longer survival
Method in brief: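 Survival measured in treated and vehicle-control tumour-bearing mice; value = T/C.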

Structure (SMILES): CN(C)/N=N/c1nc[nH]c1C(N)=O
- T/C (endpoint: mean survival time, dose: 53.0 mg/kg/injection, schedule: Q01DX Z (ip), vehicle: carboxymethylcellulose (CMC)): 106 % of control
- T/C (endpoint: mean survival time, dose: 80.0 mg/kg/injection, schedule: Q01DX Z (ip), vehicle: carboxymethylcellulose (CMC)): 104 % of control
- T/C (endpoint: mean survival time, dose: 120.0 mg/kg/injection, schedule: Q01DX Z (ip), vehicle: carboxymethylcellulose (CMC)): 112 % of control
- T/C (endpoint: mean survival time, dose: 180.0 mg/kg/injection, schedule: Q01DX Z (ip), vehicle: carboxymethylcellulose (CMC)): 93 % of control
- T/C (endpoint: mean survival time, dose: 317.0 mg/kg/injection, schedule: Q01DX001 (ip), vehicle: carboxymethylcellulose (CMC)): 101 % of control
- T/C (endpoint: mean survival time, dose: 482.0 mg/kg/injection, schedule: Q01DX001 (ip), vehicle: carboxymethylcellulose (CMC)): 87 % of control
- T/C (endpoint: median survival time, dose: 10.0 mg/kg/injection, schedule: Q01DX009 (ip), vehicle: carboxymethylcellulose (CMC)): 111 % of control
- T/C (endpoint: median survival time, dose: 20.0 mg/kg/injection, schedule: Q01DX009 (ip), vehicle: carboxymethylcellulose (CMC)): 111 % of control
- T/C (endpoint: median survival time, dose: 40.0 mg/kg/injection, schedule: Q01DX009 (ip), vehicle: carboxymethylcellulose (CMC)): 114 % of control
- T/C (endpoint: median survival time, dose: 80.0 mg/kg/injection, schedule: Q01DX009 (ip), vehicle: carboxymethylcellulose (CMC)): 117 % of control
- T/C (endpoint: median survival time, dose: 160.0 mg/kg/injection, schedule: Q01DX009 (ip), vehicle: carboxymethylcellulose (CMC)): 118 % of control
- T/C (endpoint: median survival time, dose: 200.0 mg/kg/injection, schedule: Q01DX009 (ip), vehicle: carboxymethylcellulose (CMC)): 103 % of control
- T/C (endpoint: median survival time, dose: 300.0 mg/kg/injection, schedule: Q01DX009 (ip), vehicle: carboxymethylcellulose (CMC)): 94 % of control
- T/C (endpoint: median survival time, dose: 320.0 mg/kg/injection, schedule: Q01DX009 (ip), vehicle: carboxymethylcellulose (CMC)): 108 % of control
- T/C (endpoint: median survival time, dose: 400.0 mg/kg/injection, schedule: Q01DX009 (ip), vehicle: carboxymethylcellulose (CMC)): 111 % of control
- T/C (endpoint: median survival time, dose: 600.0 mg/kg/injection, schedule: Q01DX009 (ip), vehicle: carboxymethylcellulose (CMC)): 94 % of control

Structure (SMILES): O=NN(CCF)C(=O)NC1CS(=O)(=O)CS(=O)(=O)C1
- T/C (endpoint: mean survival time, dose: 11.0 mg/kg/injection, schedule: Q01DX001 (ip), vehicle: other): 113 % of control
- T/C (endpoint: mean survival time, dose: 17.0 mg/kg/injection, schedule: Q01DX001 (ip), vehicle: other): 117 % of control
- T/C (endpoint: mean survival time, dose: 25.0 mg/kg/injection, schedule: Q01DX001 (ip), vehicle: other): 120 % of control

Structure (SMILES): COC1=C(N2CC2)C(=O)C(OC)=C(N2CC2)C1=O
- T/C (endpoint: mean survival time, dose: 0.12 mg/kg/injection, schedule: Q01DX009 (ip), vehicle: saline): 101 % of control
- T/C (endpoint: mean survival time, dose: 0.25 mg/kg/injection, schedule: Q01DX009 (ip), vehicle: saline): 95 % of control
- T/C (endpoint: mean survival time, dose: 0.5 mg/kg/injection, schedule: Q01DX009 (ip), vehicle: saline): 104 % of control and 106 % of control and 98 % of control
- T/C (endpoint: mean survival time, dose: 1.0 mg/kg/injection, schedule: Q01DX009 (ip), vehicle: saline): 105 % of control and 111 % of control and 121 % of control
- T/C (endpoint: mean survival time, dose: 2.0 mg/kg/injection, schedule: Q01DX009 (ip), vehicle: saline): 114 % of control and 117 % of control
- T/C (endpoint: mean survival time, dose: 4.0 mg/kg/injection, schedule: Q01DX009 (ip), vehicle: saline): 86 % of control

Structure (SMILES): O=NN(CCCl)C(=O)Nc1ccc(C(F)(F)F)cc1
- T/C (endpoint: mean survival time, dose: 37.0 mg/kg/injection, schedule: Q01DX001 (ip), vehicle: carboxymethylcellulose (CMC)): 110 % of control
- T/C (endpoint: mean survival time, dose: 50.0 mg/kg/injection, schedule: Q01DX001 (ip), vehicle: carboxymethylcellulose (CMC)): 110 % of control
- T/C (endpoint: mean survival time, dose: 75.0 mg/kg/injection, schedule: Q01DX001 (ip), vehicle: carboxymethylcellulose (CMC)): 118 % of control
- T/C (endpoint: mean survival time, dose: 112.0 mg/kg/injection, schedule: Q01DX001 (ip), vehicle: carboxymethylcellulose (CMC)): 92 % of control

Structure (SMILES): CC(=O)Nc1ccc2nc3ccc(NC(C)=O)cc3[n+](-c3ccccc3)c2c1
- T/C (endpoint: mean survival time, dose: 37.5 mg/kg/injection, schedule: Q01DX Z (ip), vehicle: carboxymethylcellulose (CMC)): 104 % of control
- T/C (endpoint: mean survival time, dose: 50.0 mg/kg/injection, schedule: Q01DX Z (ip), vehicle: carboxymethylcellulose (CMC)): 98 % of control
- T/C (endpoint: mean survival time, dose: 75.0 mg/kg/injection, schedule: Q01DX Z (ip), vehicle: carboxymethylcellulose (CMC)): 103 % of control
- T/C (endpoint: mean survival time, dose: 100.0 mg/kg/injection, schedule: Q01DX Z (ip), vehicle: carboxymethylcellulose (CMC)): 101 % of control
- T/C (endpoint: mean survival time, dose: 125.0 mg/kg/injection, schedule: Q01DX Z (ip), vehicle: carboxymethylcellulose (CMC)): 107 % of control
- T/C (endpoint: mean survival time, dose: 250.0 mg/kg/injection, schedule: Q01DX Z (ip), vehicle: carboxymethylcellulose (CMC)): 97 % of control

Structure (SMILES): O=NN(CCCl)C(=O)NC1CCC(C(=O)O)CC1 (centres undefined)
- T/C (endpoint: mean survival time, dose: 8.0 mg/kg/injection, schedule: Q01DX001 (ip), vehicle: saline with Tween-80): 165 % of control
- T/C (endpoint: mean survival time, dose: 26.0 mg/kg/injection, schedule: Q01DX001 (ip), vehicle: saline with Tween-80): 181 % of control and 206 % of control
- T/C (endpoint: mean survival time, dose: 40.0 mg/kg/injection, schedule: Q01DX001 (ip), vehicle: saline with Tween-80): 185 % of control and 212 % of control
- T/C (endpoint: mean survival time, dose: 60.0 mg/kg/injection, schedule: Q01DX001 (ip), vehicle: saline with Tween-80): 204 % of control
